From the METLIN SMRT retention time set (Domingo-Almenara et al. 2019) come the findings set out here.

A short description of this data set: gradient 5% acetonitrile 3 min, to 50% in 2 min, to 85% in 15 min, held 3 min, 100 µL/min. Conditions: column: Zorbax Extend-C18 2.1 x 50 mm; eluents: water / acetonitrile, 0.1% formic acid. The procedure, abridged:
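Pure standards were run in mixtures of ~100 molecules by HPLC coupled to a quadrupole time-of-flight mass spectrometer. The column was a Zorbax Extend-C18 (2.1 × 50 mm, 1.8 μm) at 100 μL/min, with water and acetonitrile each containing 0.1% formic acid, in positive and negative ionization mode. Dead and dwell volumes were 40 μL and 900 μL. Retention time was taken from computationally picked adduct peaks, each manually inspected, with data collected over 3 months.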
As to `O=C1C(c2cccnc2)N(Cc2ccco2)C(=O)CN1c1ccccc1` (stereo not drawn), the RP-LC retention time stood at 619 s. In the case of `O=c1n(Cc2cccc(F)c2)nc2c(S(=O)(=O)N3CCc4ccccc4C3)cccn12`, the RP-LC retention time is 938 s. With `O=C(NC1CCCCC1)C1CCCN(C(=O)c2ccc(F)c(F)c2)C1` (stereo not drawn) the figure was 825 s; with `Fc1cc(F)c2nc(NCc3ccco3)sc2c1`, 879 s; with `CCN(C(C)=O)c1nc(-c2ccc(C3CCCCC3)cc2)cs1`, 848 s.

`O=C(NCc1ccc(N2CCOCC2)nc1)c1ccc(C(F)(F)F)cc1` came in with an RP-LC retention time of 642 s. With `CC(C)c1noc(-c2ccn3c(CC(=O)NC4CCCCCC4)nnc3c2)n1` the figure was 823 s. With `O=C(CN1CCN(Cc2ccccc2F)C1=O)N1CCN(C2CCCCC2)CC1` the figure was 613 s; with `CN(CCNc1nc2ccncc2n(Cc2ccccc2)c1=O)C1CCCCC1`, 573 s. `COc1ccc(NC(=O)CSc2nccc(N3CCN(c4cccc(OC)c4)CC3)n2)cc1` showed an RP-LC retention time of 735 s. `CCCOc1ccc(-c2nnc3sc(-c4ccncc4)nn23)cc1` showed an RP-LC retention time of 642 s. Take `Cn1cccc(C(=O)NCCn2nc(-c3cccs3)ccc2=O)c1=O`: the RP-LC retention time is 591 s. `Cc1ccc(CNC(=O)C2(C)Cn3nc(C(=O)NCCCN4CCCCC4)cc3C(=O)N2C)cc1` (stereo not drawn) yielded an RP-LC retention time of 598 s. The molecule `Cc1cc(NCCCC(=O)NC2CCCCC2)n2nc(-c3cccnc3)nc2n1` came in with an RP-LC retention time of 646 s. With `CCOC(=O)C1CCN(S(=O)(=O)c2cccc(-c3cn4ccccc4n3)c2)CC1` the figure was 676 s; with `O=C1C2N=NN(Cc3nc(-c4ccc5c(c4)OCO5)no3)C2C(=O)N1c1ccccc1` (stereo not drawn), 893 s. With `COCCNC(=O)COc1nc(C)nc2onc(-c3ccc(F)cc3)c12` the figure was 782 s; with `Cc1ccc(-c2n[nH]c3c2CN(S(=O)(=O)c2cn(C)cn2)CC3)cc1`, 687 s; with `O=C(C1CCC1)N1CCc2sc(S(=O)(=O)Nc3ccc(F)c(Cl)c3)cc2C1`, 948 s. For `COCCCNC(=O)C1c2ccccc2C(=O)N(Cc2ccccc2)C12CCCC2` (stereo not drawn) the value was 846 s.

`COc1ccc(-n2c(=O)n(C)c(=O)c3cc(C(=O)Nc4ccc(C)cc4)cnc32)cc1` registered an RP-LC retention time of 918 s.

The molecule `CCCCN(C)C(=O)Cn1ccn2nc(-c3ccccc3)c(CO)c2c1=O` returned an RP-LC retention time of 776 s. With `COc1cccc(-c2ccc(=O)n(Cc3nc(-c4ccc(OC)c(OC)c4)no3)n2)c1` the figure was 887 s. On to `O=C(CCCc1nc(-c2ccc(Cl)cc2)no1)Nc1nc(-c2ccccc2)cs1`, for which the RP-LC retention time came to 1170 s.

Regarding `O=C(COc1ccc(Cl)cc1)N1CCC(c2nnc(-c3ccc(F)cc3)o2)CC1`, the RP-LC retention time came out at 831 s. Take `O=C(NCc1cccs1)C1CCN(c2nc3ccc(Cl)cc3[nH]2)CC1`: the RP-LC retention time turned out to be 644 s.

In the case of `CCOc1nccnc1N1CCC(N(C)C(=O)Cc2cccnc2)C1` (stereo not drawn), the RP-LC retention time was 630 s.

Turning to `Cc1ccc(NC(=O)N2CCc3nc[nH]c3C2)c(Cl)c1`, the RP-LC retention time stood at 585 s. `CCn1c(=O)oc2cc(S(=O)(=O)N3CCN(C(=O)c4ccnn4C)CC3)ccc21`: the RP-LC retention time was determined as 687 s. With `Cc1ccc(-c2nc(C3CC(=O)N(c4ccc(C)cc4)C3)no2)cc1` (stereo not drawn) the figure was 1080 s. For `CCCCOc1ccc(-c2cc3c(N4CCN(c5ccccn5)CC4)nccn3n2)cc1`, the RP-LC retention time turned out to be 822 s. The molecule `Cc1ccc(NC(=O)c2cc3c(=O)n(CC(C)C)ccc3n2C)cc1Cl` showed an RP-LC retention time of 1020 s. Consider `CCOc1ccccc1NC(=O)Cn1c(=O)n(-c2ccc(F)cc2)c(=O)c2c1cc(C)n2C`, for which the RP-LC retention time was found to be 933 s.
